For 30 molecules, IC50 results are on record in patent publication US7939534B2, “Certain chemical entities, compositions, and methods” (Cytokinetics, Inc., priority 2006, dated 2011).

This assay addresses T1, chicken gizzard smooth muscle myosin subfragment-1 chemically crosslinked to either cardiac or skeletal actin (Gallus gallus, UniProt P10587).
T1 construct: chicken gizzard smooth muscle myosin subfragment-1; from tissue; host or cells: chicken gizzard
Nature of the assay: Dose dependent smooth muscle myosin ATPase modulation (pyruvate kinase/horseradish peroxidase/pyruvate oxidase-coupled ATPase assay). Particulars: read-out: IC50 Arithmetic Mean. It is filed as biochemical. In outline: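 Chicken gizzard smooth muscle myosin S1 crosslinked (EDC/NHS) to cardiac or skeletal actin, concentration titrated to a set ATPase rate. Pyruvate kinase/pyruvate oxidase/HRP-coupled assay, 0.15 mM ATP, 12 mM K-PIPES pH 7.00, 100 mM KCl, amplex red fluorescence; IC50 from 4-parameter fit.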
As usually defined, the IC50 is the midpoint of a concentration-inhibition curve. `O=C(NCc1cccnc1)c1ccc(N2CCC(O)CC2)nc1NCCc1cccc(F)c1` [Compound 115, (2-{[2-(3-fluorophenyl)ethyl]amino}-6-(4-hydroxypiperidyl)(3-pyridyl))-N-(3-pyridylmethyl)carboxamide]: the 50% inhibitory concentration (IC50) was determined as 0.756 µM. Turning to `O=C(NCc1cccnc1)c1ccc(N2CC(O)CCC2=O)nc1NCCc1cccc(F)c1` (stereo not drawn) [Compound 20, (2-{[2-(3-fluorophenyl)ethyl]amino}-6-(5-hydroxy-2-oxopiperidyl)(3-pyridyl))-N-(3-pyridylmethyl)carboxamide], the half-inhibitory concentration (IC50) was found to be 29.7 µM.

For the molecule `CNC(=O)CNC(=O)c1ccc(N2CCC(O)CC2)nc1NCCc1cccc(F)c1` [Compound 90, 2-[(2-{[2-(3-fluorophenyl)ethyl]amino}-6-(4-hydroxypiperidyl)(3-pyridyl))carbonylamino]-N-methylacetamide], the IC50 was determined as 9.5 µM. As for `NC[C@@H]1CCN(c2ccc(C(=O)NCc3cccnc3)c(NCCc3cccc(F)c3)n2)C1` [Compound 11, (6-[(3S)-3-(aminomethyl)pyrrolidinyl]-2-{[2-(3-fluorophenyl)ethyl]amino}(3-pyridyl))-N-(3-pyridylmethyl)carboxamide], the half-maximal inhibitory concentration (IC50) was 16.9 µM. With `O=C(NCc1cccnc1)c1ccc(N2CCC(c3ccncc3)C2)nc1NCCc1cccc(F)c1` (stereo not drawn) [Compound 96, (2-{[2-(3-fluorophenyl)ethyl]amino}-6-(3-(4-pyridyl)pyrrolidinyl)(3-pyridyl))-N-(3-pyridylmethyl)carboxamide] the figure was 2.97 µM; with `O=C(NCc1cccnc1)c1ccc(N2CCC(N3CCCCC3)CC2)nc1NCCc1cccc(F)c1` [Compound 124, (2-{[2-(3-fluorophenyl)ethyl]amino}-6-(4-piperidylpiperidyl)(3-pyridyl))-N-(3-pyridylmethyl)carboxamide], 29.7 µM. With `O=C(NCc1cccnc1)c1ccc(C2=CCNCC2)nc1NCCc1cccc(F)c1` [Compound 57, (2-{[2-(3-fluorophenyl)ethyl]amino}-6-(4-1,2,5,6-tetrahydropyridyl)(3-pyridyl))-N-(3-pyridylmethyl)carboxamide] the figure was 10.5 µM; with `COC(=O)N1CC=C(c2ccc(C(=O)NCc3cccnc3)c(NCCc3cccc(F)c3)n2)CC1` [Compound 61, methyl 4-(6-{[2-(3-fluorophenyl)ethyl]amino}-5-[N-(3-pyridylmethyl)carbamoyl]-2-pyridyl)-1,2,5,6-tetrahydropyridinecarboxylate], 0.1 µM. With `C[C@H](CNC(=O)c1cc(F)c(N2CCCC2)nc1NCCc1cccc(F)c1)NC(=O)CN` [Compound 82, N-{(1R)-2-[(5-fluoro-2-{[2-(3-fluorophenyl)ethyl]amino}-6-pyrrolidinyl(3-pyridyl))carbonylamino]-isopropyl}-2-aminoacetamide] the figure was 0.197 µM; with `O=C(NCc1cccnc1)c1ccc(N2CCC(CCO)CC2)nc1NCCc1cccc(F)c1` [Compound 23, (2-{[2-(3-fluorophenyl)ethyl]amino}-6-[4-(2-hydroxyethyl)piperidyl](3-pyridyl))-N-(3-pyridylmethyl)carboxamide], 0.471 µM. `CC(C)(C)OC(=O)N1CCN(c2ccc(C(=O)NCc3cccnc3)c(NCCc3cccc(F)c3)n2)C(=O)C1` [Compound 24, tert-butyl 4-(6-{[2-(3-fluorophenyl)ethyl]amino}-5-[N-(3-pyridylmethyl)carbamoyl](2-pyridyl))-3-oxopiperazinecarboxylate]: the half-inhibitory concentration (IC50) was determined as 59.8 µM. In the case of `CNC(=O)CNC(=O)c1ccc(N2CCCC2)nc1NCCc1cccc(F)c1` [Compound 28, 2-[(2-{[2-(3-fluorophenyl)ethyl]amino}-6-pyrrolidinyl(3-pyridyl))carbonylamino]-N-methylacetamide], the half-maximal inhibitory concentration (IC50) stood at 0.329 µM.

In the case of `O=C(NCc1cccnc1)c1ccc(C2=NCCN2)nc1NCCc1cccc(F)c1` [Compound 73, (2-{[2-(3-fluorophenyl)ethyl]amino}-6-(2-imidazolin-2-yl)(3-pyridyl))-N-(3-pyridylmethyl)carboxamide], the half-inhibitory concentration (IC50) is 56.4 µM. With `O=C(NCc1cccnc1)c1ccc(C2CCCC2)nc1NCCc1cccc(F)c1` [Compound 59, (6-cyclopentyl-2-{[2-(3-fluorophenyl)ethyl]amino}(3-pyridyl))-N-(3-pyridylmethyl)carboxamide] the figure was 4.41 µM.

As for `COC(=O)N1CCN(c2ccc(C(=O)NCc3cccnc3)c(NCCc3cccc(F)c3)n2)CC1` [Compound 85, methyl 4-(6-{[2-(3-fluorophenyl)ethyl]amino}-5-[N-(3-pyridylmethyl)carbamoyl]-2-pyridyl)piperazinecarboxylate], the 50% inhibitory concentration (IC50) is 1.53 µM. The result for `COC(=O)N1C=CC(c2ccc(C(=O)NCc3cccnc3)c(NCCc3cccc(F)c3)n2)CC1` (stereo not drawn) [Compound 72, methyl 4-(6-{[2-(3-fluorophenyl)ethyl]amino}-5-[N-(3-pyridylmethyl)carbamoyl]-2-pyridyl)-1,4,5,6-tetrahydropyridinecarboxylate] reads 5.77 µM; that for `NCc1ncccc1CNC(=O)c1ccc(N2CC[C@H](F)C2)nc1NCCc1cccc(F)c1` [Compound 38, (6-((3S)-3-fluoropyrrolidinyl)-2-{[2-(3-fluorophenyl)ethyl]amino}(3-pyridyl))-N-{[2-(aminomethyl)(3-pyridyl)]methyl}carboxamide], 0.0882 µM.

For `CNC(=O)CNC(=O)c1ccc(N2CCC(F)(F)C2)nc1NCCc1cccc(F)c1` [Compound 97, 2-[(6-(3,3-difluoropyrrolidinyl)-2-{[2-(3-fluorophenyl)ethyl]amino}(3-pyridyl))carbonylamino]-N-methylacetamide], the half-inhibitory concentration (IC50) stood at 0.931 µM. For the molecule `O=C(NCc1cccnc1)c1ccc(N2CC[C@@H](CO)C2)nc1NCCc1cccc(F)c1` [Compound 6, (6-[(3R)-3-(hydroxymethyl)pyrrolidinyl]-2-{[2-(3-fluorophenyl)ethyl]amino}(3-pyridyl))-N-(3-pyridylmethyl)carboxamide], the IC50 stood at 0.311 µM. Turning to `O=C1CN(c2ccc(C(=O)NCc3cccnc3)c(NCCc3cccc(F)c3)n2)CCN1` [Compound 21, (2-{[2-(3-fluorophenyl)ethyl]amino}-6-(3-oxopiperazinyl)(3-pyridyl))-N-(3-pyridylmethyl)carboxamide], the 50% inhibitory concentration (IC50) was 6.97 µM.

Take `CN(C)C(=O)N[C@@H]1CCN(c2ccc(C(=O)NCc3cccnc3)c(NCCc3cccc(F)c3)n2)C1` [Compound 31, N-[(3R)-1-(6-{[2-(3-fluorophenyl)ethyl]amino}-5-[N-(3-pyridylmethyl)carbamoyl](2-pyridyl))pyrrolidin-3-yl](dimethylamino)carboxamide]: the IC50 came to 67.8 µM. With `CN(C)C[C@@H]1CCN(c2ccc(C(=O)NCc3cccnc3)c(NCCc3cccc(F)c3)n2)C1` [Compound 9, (6-{(3S)-3-[(dimethylamino)methyl]pyrrolidinyl}-2-{[2-(3-fluorophenyl)ethyl]amino}(3-pyridyl))-N-(3-pyridylmethyl)carboxamide] the figure was 75.1 µM.

For `NC(=O)CCNC(=O)c1ccc(N2CCCC2)nc1NCCc1cccc(F)c1` [Compound 13, N-(2-carbamoylethyl)(2-{[2-(3-fluorophenyl)ethyl]amino}-6-pyrrolidinyl(3-pyridyl))carboxamide], the 50% inhibitory concentration (IC50) was found to be 1.59 µM. Consider `CC(C)(C)OC(=O)NCc1ncccc1CNC(=O)c1cc(F)c(N2CC[C@@H](O)C2)nc1NCCc1cccc(F)c1` [Compound 54, (6-((3R)-3-hydroxypyrrolidinyl)-5-fluoro-2-{[2-(3-fluorophenyl)ethyl]amino}(3-pyridyl))-N-[(2-{[(tert-butoxy)carbonylamino]methyl}(3-pyridyl))methyl]carboxamide], for which the IC50 was determined as 6.78 µM.

For the molecule `CCOC(=O)N1CCN(c2ccc(C(=O)NCc3cccnc3)c(NCCc3cccc(F)c3)n2)CC1` [Compound 125, ethyl 4-(6-{[2-(3-fluorophenyl)ethyl]amino}-5-[N-(3-pyridylmethyl)carbamoyl]-2-pyridyl)piperazinecarboxylate], the IC50 was 3.16 µM. The result for `CC(C)(C)OC(=O)NCCCN1C(=O)CC[C@@H]1CNC(=O)c1cc(F)c(N2CCCC2)nc1NCCc1cccc(F)c1` [Compound 68, N-[((2R)-1-{3-[(tert-butoxy)carbonylamino]propyl}-5-oxopyrrolidin-2-yl)methyl](5-fluoro-2-{[2-(3-fluorophenyl)ethyl]amino}-6-pyrrolidinyl(3-pyridyl))carboxamide] reads 3.32 µM.

For the molecule “N-{[(2R)-1-(2-aminoacetyl)pyrrolidin-2-yl]methyl}(5-fluoro-2-{[2-(3-fluorophenyl)ethyl]amino}-6-pyrrolidinyl(3-pyridyl))carboxamide [Compound 76]”, the IC50 was 0.212 µM.

For the molecule `NCCCN1C(=O)CC[C@@H]1CNC(=O)c1cc(F)c(N2CCCC2)nc1NCCc1cccc(F)c1` [Compound 52, N-{[(2R)-1-(3-aminopropyl)-5-oxopyrrolidin-2-yl]methyl}(5-fluoro-2-{[2-(3-fluorophenyl)ethyl]amino}-6-pyrrolidinyl(3-pyridyl))carboxamide], the IC50 came out at 0.119 µM.

As for `O=C(NCc1cccnc1)c1ccc(N2CCCC2)nc1NCCc1cccc(F)c1` [Compound 16, (2-{[2-(3-fluorophenyl)ethyl]amino}-6-pyrrolidinyl(3-pyridyl))-N-(3-pyridylmethyl)carboxamide], the half-maximal inhibitory concentration (IC50) stood at 0.131 µM.

`O=C(NCc1cccnc1)c1ccc(N2CCCCC2=O)nc1NCCc1cccc(F)c1` [Compound 10, (2-{[2-(3-fluorophenyl)ethyl]amino}-6-(2-oxopiperidyl)(3-pyridyl))-N-(3-pyridylmethyl)carboxamide]: the IC50 is 5.4 µM.
